Measurements taken from ChEMBL document CHEMBL4425153, “Matched and mixed cap derivatives in the tetracyclic indole class of HCV NS5A inhibitors” (Bioorg Med Chem Lett, 2016).
Where a chain is given by its changes, count along the chain named.

What was measured:
[1] = system: T1, Nonstructural protein 5A (Hepatitis C virus), Q5L478 [Y93H]; assay: Inhibition of HCV genotype 1a NS5A Y93H mutant assessed as reduction in viral RNA level by cell based real time PCR method; settings: Hepatitis C virus subtype 1a
T1 sequence (whole entry): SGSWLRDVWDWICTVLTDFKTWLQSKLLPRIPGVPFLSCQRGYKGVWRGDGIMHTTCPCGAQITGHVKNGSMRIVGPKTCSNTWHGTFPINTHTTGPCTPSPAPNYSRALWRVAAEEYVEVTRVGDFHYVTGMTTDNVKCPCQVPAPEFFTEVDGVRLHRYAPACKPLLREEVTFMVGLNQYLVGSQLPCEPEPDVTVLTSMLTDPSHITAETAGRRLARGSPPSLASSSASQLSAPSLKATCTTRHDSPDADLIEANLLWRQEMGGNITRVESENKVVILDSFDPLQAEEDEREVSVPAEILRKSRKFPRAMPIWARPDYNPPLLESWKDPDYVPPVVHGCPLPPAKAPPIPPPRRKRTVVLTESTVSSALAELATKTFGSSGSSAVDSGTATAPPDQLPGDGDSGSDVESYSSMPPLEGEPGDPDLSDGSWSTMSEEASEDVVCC

[2] = system: Nonstructural protein 5A (Hepatitis C virus), Q5L478 [UNDEFINED MUTATION]; assay: Inhibition of HCV genotype 1a NS5A L31V mutant assessed as reduction in viral RNA level by cell based real time PCR method; settings: Hepatitis C virus subtype 1a
[3] = target: T2, Nonstructural protein 5A (Hepatitis C virus) (UniProt Q5L478); assay: Inhibition of wild type HCV genotype 2b NS5A assessed as reduction in viral RNA level by cell based real time PCR method; settings: Hepatitis C virus subtype 2b
T2 sequence (whole entry): T1 sequence (whole entry) with H93Y

[4] = target: T2, Nonstructural protein 5A (Hepatitis C virus); assay: Inhibition of wild type HCV genotype 1a NS5A assessed as reduction in viral RNA level by cell based real time PCR method; settings: Hepatitis C virus subtype 1a

| SMILES | EC90 [1] [nM] | EC90 [2] [nM] | EC90 [3] [nM] | EC90 [4] [nM] |
| --- | --- | --- | --- | --- |
| COC(=O)N[C@H](C(=O)N1CCC[C@H]1c1ncc(-c2ccc3c(c2)O[C@@H](c2ccccc2)n2c-3cc3cc(-c4cnc([C@@H]5CCCN5C(=O)[C@@H](NC(=O)OC)C5CCCCC5)[nH]4)ccc32)[nH]1)C1CCCCC1 | > 100 | 11 | > 100 | 0.1 |
| COC(=O)N[C@H](C(=O)N1CCC[C@H]1c1ncc(-c2ccc3c(c2)cc2n3[C@H](c3ccccc3)Oc3cc(-c4cnc([C@@H]5CCCN5C(=O)[C@@H](NC(=O)OC)[C@@H](C)OC)[nH]4)ccc3-2)[nH]1)C(C)C | 50 | 1.1 | 5 | 0.062 |
| CC[C@H](NC(=O)OC)C(=O)N1CCC[C@H]1c1ncc(-c2ccc3c(c2)O[C@@H](c2ccccc2)n2c-3cc3cc(-c4cnc([C@@H]5CCCN5C(=O)[C@H](CC)NC(=O)OC)[nH]4)ccc32)[nH]1 | > 100 | 1.6 | 65 | 0.016 |
| CN(C)[C@@H](C(=O)N1CCC[C@H]1c1ncc(-c2ccc3c(c2)O[C@@H](c2ccccc2)n2c-3cc3cc(-c4cnc([C@@H]5CCCN5C(=O)[C@@H](c5ccc(F)cc5)N(C)C)[nH]4)ccc32)[nH]1)c1ccc(F)cc1 | > 100 | > 100 | > 100 | 0.98 |
| CCN(CC)[C@@H](C(=O)N1CCC[C@H]1c1ncc(-c2ccc3c(c2)O[C@@H](c2ccccc2)n2c-3cc3cc(-c4cnc([C@@H]5CCCN5C(=O)[C@@H](c5ccccc5)N(CC)CC)[nH]4)ccc32)[nH]1)c1ccccc1 | > 100 | 0.6 | 3.1 | 0.27 |
| COCC[C@H](NC(=O)OC)C(=O)N1CCC[C@H]1c1ncc(-c2ccc3c(c2)O[C@@H](c2ccccc2)n2c-3cc3cc(-c4cnc([C@@H]5CCCN5C(=O)[C@H](CCOC)NC(=O)OC)[nH]4)ccc32)[nH]1 | 46 | 2.1 | 91 | 0.061 |
| COC(=O)N[C@@H](CC1CCOCC1)C(=O)N1CCC[C@H]1c1ncc(-c2ccc3c(c2)O[C@@H](c2ccccc2)n2c-3cc3cc(-c4cnc([C@@H]5CCCN5C(=O)[C@H](CC5CCOCC5)NC(=O)OC)[nH]4)ccc32)[nH]1 | 40 | 0.77 | 18 | 0.1 |
| COC(=O)N[C@H](C(=O)N1CCC[C@H]1c1ncc(-c2ccc3c(c2)O[C@@H](c2ccccc2)n2c-3cc3cc(-c4cnc([C@@H]5CCCN5C(=O)[C@@H](NC(=O)OC)[C@@H](C)O)[nH]4)ccc32)[nH]1)[C@@H](C)O | > 100 | > 100 | > 100 | > 1 |
| COC(=O)N[C@H](C(=O)N1CCC[C@H]1c1ncc(-c2ccc3c(c2)O[C@@H](c2ccccc2)n2c-3cc3cc(-c4cnc([C@@H]5CCCN5C(=O)[C@@H](NC(=O)OC)C5CC5)[nH]4)ccc32)[nH]1)C1CC1 | > 100 | > 100 | > 100 | 0.028 |
| O=C([C@H]1CCCO1)N1CCC[C@H]1c1ncc(-c2ccc3c(c2)O[C@@H](c2ccccc2)n2c-3cc3cc(-c4cnc([C@@H]5CCCN5C(=O)[C@H]5CCCO5)[nH]4)ccc32)[nH]1 | > 100 | > 100 | > 100 | 1 |
| CC[C@H](C)[C@H](NC(=O)OC)C(=O)N1CCC[C@H]1c1ncc(-c2ccc3c(c2)O[C@@H](c2ccccc2)n2c-3cc3cc(-c4cnc([C@@H]5CCCN5C(=O)[C@@H](NC(=O)OC)[C@@H](C)CC)[nH]4)ccc32)[nH]1 | > 100 | 1.8 | > 100 | 0.011 |
| COC(=O)N[C@H](C(=O)N1CCC[C@H]1c1ncc(-c2ccc3c(c2)O[C@@H](c2ccccc2)n2c-3cc3cc(-c4cnc([C@@H]5CCCN5C(=O)[C@@H](NC(=O)OC)C5CCC(F)(F)CC5)[nH]4)ccc32)[nH]1)C1CCC(F)(F)CC1 | 39 | 0.65 | 77 | 0.03 |
| O=C([C@@H](c1ccccc1)N1CCCC1)N1CCC[C@H]1c1ncc(-c2ccc3c(c2)O[C@@H](c2ccccc2)n2c-3cc3cc(-c4cnc([C@@H]5CCCN5C(=O)[C@@H](c5ccccc5)N5CCCC5)[nH]4)ccc32)[nH]1 | > 100 | 3.9 | 13 | 3.9 |
